In publication PMC9611726, “Synthesis, Characterization and Biological Investigation of New N-Modified Spinorphin Analogs” (Pharmaceuticals, 2022):
Marks after values point to notes of the source that are not given here. Where a SMILES comes first, the peptide text is derived from it. [ ]: non-standard residue; d: D form. The star is where a group is joined. X1 = CCN(CC)c1ccc2c(c1)Oc1cc(N(CC)CC)ccc1C2c1ccccc1C(=O)*; Ac6c = NC1(C(=O)O)CCCCC1; Ac5c = NC1(C(=O)O)CCCC1

Experiments:
[1] = Acid-base constants (pKa) and isoelectric point (pI) by fluorimetry, confirmed by UV-Vis; type: physicochemical; conditions: for pKa2 / pKa1: fluorimetric, inflection of I/pH curve, confirmed by UV-Vis, average values from repeatable results; for pKa2: pH 1 to 12, rhodamine part (λex 560 nm); for pKa1: pH 1 to 12, tryptophan emission (λex 275 nm); for pI: isoelectric point calculated from the protolytic constants
Procedure: When studying the fluorescence properties, the emission spectra were recorded upon excitation at two wavelengths: λ^ex = 275 nm where tryptophan/tyrosine fluoresces, and at λ^ex = 560 nm where excitation of the rhodamine moiety is possible (Figure 5 and Figure 6). […] With both amino acids present in the indicated complex mixture, the fluorescence in the 300–400 nm range is more likely to originate from the indole group of the tryptophan residue, which is known to emit at ~350 nm at an excitation wavelength of 280 nm. Moreover, spectra were recorded at different pHs of the medium to determine the study compounds’ acid constants and isoelectric points. All compounds show similar behavior of fluorescence properties with minimal difference in wavelength where the compound absorbs in the visible region (1–2 nm). A strong decrease in the intensity of the emission maximum at λ^em = 585 nm is observed with an increase in the pH of the medium, which is due to the structural changes associated with the closure of the spirolactam ring at rhodamine. pH also affects the fluorescence emission intensity of the tryptophan/tyrosine spectral line. […] The obtained emission spectra at different pHs helped us to determine the acidity constants of the obtained compounds. pK values were obtained by selecting the inflection points of the I/pH curve at two wavelengths: 275 nm, where tryptophan emits, and 575 nm for the rhodamine part, respectively (Figure 5 and Figure 6, inserted graphs). At these points the concentrations of conjugated acid and base are equal, i.e., [HRh-S] = [Rh-S-], and according to the known relationship […] at this point pKa = рН. Equations (1) and (2) given in the experimental part were also used to calculate the acid constants to confirm the values. […] The proven higher values of the constants given in [24] are due to the influence of the –OH group of tyrosine, located near the spirolactam ring of rhodamine and leading to its more effortless opening. […] Based on the obtained values of the protolytic constants, the isoelectric points were calculated where the compounds would show zero charge and reduced solubility (Table 1). […] Stokes shift, showing the differences between the structure of the fluorophore in the ground S0 state and in the first excited state S1, was also determined as an essential feature for the rhodamine peptide derivatives (Figure 5, Table 2). The Stokes shift for all compounds at the rhodamine moiety is ~859 cm^−1, which is consistent with the rhodamine derivatives known in the literature.
Acid base constants and isoelectric points were determined fluorimetrically and confirmed by UV–Vis analyses. Absorption and emission spectra were recorded on a series of solutions with the same concentration of the peptide derivatives at different pHs (from 1 to 12). The assay data (intensity/absorbance versus pH) were processed with Origin8Pro mathematical software. The pK value were determined using the following equations:log [(Amax − A)/(A − Amin)] = pH − pKa(1) log [(IF max − IF)/(IF − IF min)] = pH – pKa(2) where the minimum (Amin) and the maximum (Amax) absorbances are at 275 nm and 557 nm, respectively, A is the absorbance at the given pH value; Fmax and Fmin are the maximum and minimum fluorescence emission intensity at 356 and 585 nm, respectively, F is the fluorescence intensity at the given pH value.

[2] = test system: 6-Hz-induced psychomotor seizures; assay: Six Hz psychomotor seizure test; type: in vivo, mice; conditions: i.c.v.; for % Protection / No. of Animals Protected/No. of Animals Tested: 6 Hz test, male ICR mice, test 10 min after administration; for anticonvulsant effect against 6-Hz-induced psychomotor seizures (in words): highest dose of 20 μg
Description: The screeing test for anticonvulsant activity of drugs was perfomed on male ICR mice (25–30 g), purchased by the vivarium of the Institute of Neurobiology, BAS. They were kept in standard laboratory conditions and cages in groups of 5–6 per cage with ad libitum access to commercial pellets for rodents and water. After a week of adaptation, all mice were allocated in groups of 6 according to their treatment and test procedure. Each mouse was used only for one experiment. All procedures were performed in agreement with the European Communities Council Directive 2010/63/EU. The experimental design was approved by the Bulgarian Food Safety Agency (#300/№ 5888–0183).
[…] The test for anticonvulsant activity was carried out 10 min after drug administration.
The test for assessment drug effect against psychomotor seizures was performed via a constant current device and corneal electrodes as previously. The criterion for assessing the anticonvulsant activity was restoration of normal posture 10 s after stimulation. Controls (mice treated with vehicle) were unable to resume normal behavior and stimulation trigger different stereotypic responses and automatism such as sniffing, vibrissae, locomotion, Straub tail, or clonic seizures.
For the 6-Hz test and MES a Fisher’s exact test (two-tailed) was applied. A one-way ANOVA of variance was used for the ivPTZ test and a Dunnet post hoc test in case of significance. Statistical significance was accepted at p ≤ 0.05 vs. control (Fisher’s exact test). The calculations were carried out with SigmaPlot program (11.0 version) and Graph Pad Prizm (Version 7.04) (GraphPad Software, San Diego, CA, USA).

[3] = mice, p ≤ 0.05 compared to control

SMILES	pKa2 [1]	pKa1 [1]	pI [1]	% Protection ([2]; dose 5 µg/10 µL)	No. of Animals Protected/No. of Animals Tested ([2]; dose 5 µg/10 µL)	% Protection ([2]; dose 10 µg/10 µL)	No. of Animals Protected/No. of Animals Tested ([2]; dose 10 µg/10 µL)	% Protection ([2]; dose 20 µg/10 µL)	No. of Animals Protected/No. of Animals Tested ([2]; dose 20 µg/10 µL)	anticonvulsant effect against 6-Hz-induced psychomotor seizures (in words) [2, 3]	protection against 6-Hz-induced psychomotor seizures (in words) ([2]; mice, at the three doses used (5, 10, and 20 μg), p ≤ 0.05 compared to control)
CCN(CC)c1ccc2c(c1)Oc1cc(N(CC)CC)ccc1C2c1ccccc1C(=O)N[C@@H](CC(C)C)C(=O)N[C@H](C(=O)N[C@H](C(=O)N[C@@H](Cc1ccc(O)cc1)C(=O)NC1(C(=O)N[C@@H](Cc2c[nH]c3ccccc23)C(=O)N[C@H](C(N)=O)[C@@H](C)O)CCCCC1)C(C)C)C(C)C [Rh-S6, rhodamineB-Leu-Val-Val-Tyr-Ac6c-Trp-Thr-NH2] (X1-LVVY[Ac6c]WT-NH2)	4.94	6.35	5.65	33%	2/6	50%	3/6	67 * %	4/6	significant anticonvulsant effect	–
CCN(CC)c1ccc2c(c1)Oc1cc(N(CC)CC)ccc1C2c1ccccc1C(=O)N[C@@H](CC(C)C)C(=O)N[C@H](C(=O)N[C@H](C(=O)N[C@@H](Cc1ccc(O)cc1)C(=O)NC1(C(=O)N[C@@H](Cc2c[nH]c3ccccc23)C(=O)N[C@H](C(N)=O)[C@@H](C)O)CCCC1)C(C)C)C(C)C [Rh-S5, rhodamineB-Leu-Val-Val-Tyr-Ac5c-Trp-Thr-NH2] (X1-LVVY[Ac5c]WT-NH2)	5.36	5.11	5.23	17%	1/6	33%	2/6	83 * %	5/6	significant anticonvulsant effect	–
CCN(CC)c1ccc2c(c1)Oc1cc(N(CC)CC)ccc1C2c1ccccc1C(=O)N[C@@H](CC(C)C)C(=O)N[C@H](C(=O)N[C@H](C(=O)N[C@@H](Cc1ccc(O)cc1)C(=O)N1CCC[C@H]1C(=O)N[C@@H](Cc1c[nH]c2ccccc12)C(=O)N[C@H](C(N)=O)[C@@H](C)O)C(C)C)C(C)C [Rh-S, rhodamineB-Leu-Val-Val-Tyr-Pro-Trp-Thr-NH2] (X1-LVVYPWT-NH2)	4.56	7.09	5.82	67 * %	4/6	100 * %	6/6	67 * %	4/6	–	significant protection
